The values that follow come from patent US5025011A, “Fused pyridines active on the cardiovascular system” (SIMES, Societa Italiana Medicinali e Sintetici S.p.A., priority 1988, dated 1991).

The Ki is a dissociation constant, usually derived from enzyme kinetics or from competition with a known ligand. A high value points to weaker binding. In general, IC50 refers to the concentration that gives 50% inhibition.

The target in assay [1] is T1, mouse lung beta2 receptors (Mus musculus, UniProt P18762).
T1 construct: beta2 lung receptors in mouse; from tissue; host or cells: mouse lung
T1 sequence (P18762 whole entry): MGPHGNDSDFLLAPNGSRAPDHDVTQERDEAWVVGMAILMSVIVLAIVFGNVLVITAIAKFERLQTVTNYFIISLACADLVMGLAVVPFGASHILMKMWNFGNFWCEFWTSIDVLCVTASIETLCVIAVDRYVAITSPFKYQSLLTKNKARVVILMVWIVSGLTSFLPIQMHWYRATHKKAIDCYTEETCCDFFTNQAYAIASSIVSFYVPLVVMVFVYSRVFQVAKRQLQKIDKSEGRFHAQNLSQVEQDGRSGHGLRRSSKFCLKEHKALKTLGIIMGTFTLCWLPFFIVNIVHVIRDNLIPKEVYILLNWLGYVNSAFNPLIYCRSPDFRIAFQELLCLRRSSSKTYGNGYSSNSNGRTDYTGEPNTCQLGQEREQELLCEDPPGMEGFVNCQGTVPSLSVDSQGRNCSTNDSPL
The assay is described as follows: beta-blocking activity: binding test towards beta2 lung receptors in mouse. The source says:
(§1) Moreover the beta-blocking activity has been tested with i binding tests both towards beta1 heart receptors and beta2 lung receptors in mouse according to methods described in J. Biol. Chem., 253, 5090, (1978) and Br. J. Pharmacol., 68, 57, (1980).

For assay [2], the target named is T2, mouse heart beta1 receptors (Mus musculus, UniProt P34971).
T2 construct: beta1 heart receptors; from tissue; host or cells: mouse heart
T2 sequence (P34971 whole entry): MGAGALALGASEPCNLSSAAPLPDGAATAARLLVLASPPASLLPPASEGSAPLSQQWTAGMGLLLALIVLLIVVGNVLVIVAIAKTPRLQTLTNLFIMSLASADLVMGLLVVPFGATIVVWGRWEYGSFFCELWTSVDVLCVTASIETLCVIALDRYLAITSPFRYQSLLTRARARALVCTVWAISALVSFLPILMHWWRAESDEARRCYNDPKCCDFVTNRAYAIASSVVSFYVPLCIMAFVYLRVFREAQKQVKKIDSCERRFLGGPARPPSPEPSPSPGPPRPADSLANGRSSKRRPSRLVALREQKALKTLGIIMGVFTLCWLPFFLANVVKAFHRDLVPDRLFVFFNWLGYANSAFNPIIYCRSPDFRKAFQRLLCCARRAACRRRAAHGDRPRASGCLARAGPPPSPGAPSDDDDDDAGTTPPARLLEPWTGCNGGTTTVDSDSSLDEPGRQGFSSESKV
As to the kind of experiment: beta-blocking activity: binding test towards beta1 heart receptors in mouse.
Text: as §1

The subject of assay [3] is rabbit mesenteric artery. The assay is described as follows: Calcium antagonist activity: antagonizing the effect of Ca++ on preparations of rabbit mesenteric artery in Krebs depolarizer. Format: cell-based. The following applies: Oryctolagus cuniculus, Ca++ submaximal concentration 3 mM. The method, then: Calcium antagonist activity of the compounds of formula I has been tested as capability of antagonizing the effect of Ca^++ submaximal concentrations (3 mM) on preparations of rabbit mesenteric artery in Krebs depolarizer, prepared according to Towart "J. Cardiovasc. Pharmacol." 4, 895, (1982).

Regarding `CCOC(=O)C1=C(C)Nc2cnn(CC(C)(C)NCC(O)COc3ccccc3OC)c(=O)c2C1c1cccc([N+](=O)[O-])c1` (stereo not drawn) [Compound B], the Ki in assay [1] is 71 nM; in assay [2] it was 142 nM. The IC50 in assay [3] amounted to 770 nM.
Take `CCOC(=O)C1=C(C)Nc2cnn(CCNCC(O)COc3ccccc3OC)c(=O)c2C1c1cccc([N+](=O)[O-])c1` (stereo not drawn) [Compound A, Ethyl 2-methyl-4-(3-nitrophenyl)-5-oxo-6-(2-(2-hydroxy-3-(2-methoxyphenoxy)-propylamino)-ethyl)-1,4,5,6-tetrahydro-pyrido(2,3-d)pyridaxine-3-carboxylate]: the Ki turned out to be 287 nM in assay [1] and 345 nM in assay [2]. Also, the IC50 in assay [3] is 240 nM.
